How the values were obtained:
[1] = target: T1, CFTR in F508del/F508del primary CF hBE cells (Homo sapiens, UniProt P13569, DEL508-508); assay: Ussing chamber electrophysiology assay of CFTR potentiation in F508del/F508del CF bronchial epithelial cells (27° C.); type: cell-based
T1 construct: Primary cystic fibrosis human bronchial epithelial (CF hBE) cells were expanded and cultured; endogenous in cells; host or cells: primary CF human bronchial epithelial cells, genotype F508del/F508del
Summary of the method: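 Short-circuit current was recorded under zero-voltage clamp across primary CF bronchial epithelia cultured >30 days at air/liquid interface, bathed apically and basolaterally in HEPES-buffered saline. Sequential additions: amiloride (30 uM), forskolin (10 uM), compound at 4 increasing levels, CFTRinh-172 (20 uM). Responses normalised between DMSO (0%) and maximal positive-control potentiator (100%).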

[2] = target: T2, recombinant F508del V470 CFTR in Fischer rat thyroid (FRT) cells (Homo sapiens, UniProt P13569, DEL508-508); assay: FRT ion flux assay of F508del CFTR potentiation; type: cell-based; details: FRT cells expressing F508del V470 CFTR, forskolin 20 uM, 27° C. pre-incubation
T2 construct: expressed in transfected cells
T2 sequence (P13569 with tags, fused parts or gaps DEL508-508): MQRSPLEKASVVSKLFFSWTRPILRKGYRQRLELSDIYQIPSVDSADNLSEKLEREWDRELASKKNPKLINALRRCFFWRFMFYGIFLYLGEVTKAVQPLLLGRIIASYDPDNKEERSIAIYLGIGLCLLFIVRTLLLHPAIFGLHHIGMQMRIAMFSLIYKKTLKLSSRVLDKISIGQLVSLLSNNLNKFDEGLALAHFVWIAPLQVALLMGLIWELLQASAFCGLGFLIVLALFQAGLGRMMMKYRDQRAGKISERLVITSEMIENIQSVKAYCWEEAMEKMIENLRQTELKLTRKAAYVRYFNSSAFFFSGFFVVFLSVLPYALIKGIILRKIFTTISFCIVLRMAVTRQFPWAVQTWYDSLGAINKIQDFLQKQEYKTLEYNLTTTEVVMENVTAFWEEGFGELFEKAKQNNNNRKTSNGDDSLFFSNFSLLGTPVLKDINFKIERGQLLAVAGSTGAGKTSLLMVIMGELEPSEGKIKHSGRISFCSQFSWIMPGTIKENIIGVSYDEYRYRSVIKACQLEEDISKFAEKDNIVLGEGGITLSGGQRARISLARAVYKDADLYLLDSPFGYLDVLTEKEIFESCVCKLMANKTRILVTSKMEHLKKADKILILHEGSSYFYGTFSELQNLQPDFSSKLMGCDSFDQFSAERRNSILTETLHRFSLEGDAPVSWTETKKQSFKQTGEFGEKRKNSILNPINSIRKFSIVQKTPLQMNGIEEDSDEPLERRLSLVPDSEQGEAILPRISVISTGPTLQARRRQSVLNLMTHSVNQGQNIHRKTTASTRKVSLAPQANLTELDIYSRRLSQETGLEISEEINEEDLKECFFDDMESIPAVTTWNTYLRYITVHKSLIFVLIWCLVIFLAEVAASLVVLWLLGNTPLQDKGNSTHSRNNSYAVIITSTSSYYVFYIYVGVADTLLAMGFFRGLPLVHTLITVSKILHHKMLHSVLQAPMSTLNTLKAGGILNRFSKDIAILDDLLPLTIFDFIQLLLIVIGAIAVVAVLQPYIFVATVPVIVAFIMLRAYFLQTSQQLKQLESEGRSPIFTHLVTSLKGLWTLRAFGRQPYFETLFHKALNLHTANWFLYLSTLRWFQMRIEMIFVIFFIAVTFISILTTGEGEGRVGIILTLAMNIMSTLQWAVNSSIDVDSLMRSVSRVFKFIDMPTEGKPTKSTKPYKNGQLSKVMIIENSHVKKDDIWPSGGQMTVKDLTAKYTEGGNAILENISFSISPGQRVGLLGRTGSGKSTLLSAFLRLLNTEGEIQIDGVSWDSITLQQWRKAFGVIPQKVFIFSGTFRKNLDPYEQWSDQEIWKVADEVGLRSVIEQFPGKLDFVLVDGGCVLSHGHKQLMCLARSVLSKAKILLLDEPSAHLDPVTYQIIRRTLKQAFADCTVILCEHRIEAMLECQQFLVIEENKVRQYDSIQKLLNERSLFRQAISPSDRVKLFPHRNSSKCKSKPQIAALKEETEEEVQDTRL
Summary of the method: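 Potentiation read as YFP quench ~21 s after iodide buffer addition, as second/initial fluorescence ratio normalised between DMSO (0%) and reference potentiator (100%).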

T1 sequence (P13569 with tags, fused parts or gaps DEL508-508): as above

Row | Structure (SMILES) | EC50 [1] [nM] | EC50 [2] [nM]
1 | Nc1ncnc2c1c(-c1cnco1)cn2Cc1cn(-c2ccccc2F)nn1 [Example 197, 7-{[1-(2-Fluorophenyl)-1H-1,2,3-triazol-4-yl]methyl}-5-(1,3-oxazol-5-yl)-7H-pyrrolo[2,3-d]pyrimidin-4-amine] | 811 | 254
2 | Nc1ncnc2c1c(C1CCCO1)cn2Cc1cn(-c2ccccc2F)nn1 (centres unmarked) [Example 198, 7-{[1-(2-Fluorophenyl)-1H-1,2,3-triazol-4-yl]methyl}-5-(tetrahydrofuran-2-yl)-7H-pyrrolo[2,3-d]pyrimidin-4-amine] | 2120 | > 25000
3 | COc1ncncc1-c1cn(Cc2cn(-c3ccccc3F)nn2)c2ncnc(N)c12 [Example 200, 7-{[1-(2-Fluorophenyl)-1H-1,2,3-triazol-4-yl]methyl}-5-(4-methoxypyrimidin-5-yl)-7H-pyrrolo[2,3-d]pyrimidin-4-amine] | 478 | 100
4 | COc1ncccc1-c1cn(Cc2cn(-c3ccccc3F)nn2)c2nc(C)nc(N)c12 [Example 202, 7-{[1-(2-Fluorophenyl)-1H-1,2,3-triazol-4-yl]methyl}-5-(2-methoxypyridin-3-yl)-2-methyl-7H-pyrrolo[2,3-d]pyrimidin-4-amine] | 798 | 922
5 | COc1ncncc1-c1cn(Cc2cn(-c3ccccc3F)nn2)c2nc(C)nc(N)c12 [Example 203, 7-{[1-(2-fluorophenyl)-1H-1,2,3-triazol-4-yl]methyl}-5-(4-methoxypyrimidin-5-yl)-2-methyl-7H-pyrrolo[2,3-d]pyrimidin-4-amine] | 2530 | 1610
6 | COc1nc(C(F)(F)F)ccc1-c1cn(Cc2cn(-c3ccccc3F)nn2)c2ncnc(N)c12 [Example 206, 7-{[1-(2-fluorophenyl)-1H-1,2,3-triazol-4-yl]methyl}-5-[2-methoxy-6-(trifluoromethyl)pyridin-3-yl]-7H-pyrrolo[2,3-d]pyrimidin-4-amine] | 10.8 | 22.9
7 | COc1cccnc1-c1cn(Cc2cn(-c3ccccc3F)nn2)c2ncnc(N)c12 [Example 207, 7-{[1-(2-fluorophenyl)-1H-1,2,3-triazol-4-yl]methyl}-5-(3-methoxypyridin-2-yl)-7H-pyrrolo[2,3-d]pyrimidin-4-amine] | 238 | 226
8 | Cc1cccc(-n2cc(C(C)n3cc(-c4ccc(Cl)cc4)c4c(N)ncnc43)nn2)c1 (centres unmarked) [Example 208, 5-(4-Chlorophenyl)-7-{1-[1-(3-methylphenyl)-1H-1,2,3-triazol-4-yl]ethyl}-7H-pyrrolo[2,3-d]pyrimidin-4-amine] | 55 | 404
9 | Cc1nc(N)c2c(-c3ccc(Cl)cc3)cn(C(C)c3cn(-c4ccccc4F)nn3)c2n1 (centres unmarked) [Example 209, 5-(4-Chlorophenyl)-7-{1-[1-(2-fluorophenyl)-1H-1,2,3-triazol-4-yl]ethyl}-2-methyl-7H-pyrrolo[2,3-d]pyrimidin-4-amine] | 295 | 343
10 | COc1ncccc1-c1cn(Cc2cn(-c3ccccc3F)nn2)c2ncnc(N)c12 [Example 210, 7-{[1-(2-Fluorophenyl)-1H-1,2,3-triazol-4-yl]methyl}-5-(2-methoxy-pyridin-3-yl)-7H-pyrrolo[2,3-d]pyrimidin-4-amine] | 158 | 123
11 | CCC(c1cn(-c2ccccc2F)nn1)n1cc(-c2ccc(Cl)cc2)c2c(N)ncnc21 (centres unmarked) [Example 211, 5-(4-Chlorophenyl)-7-{1-[1-(2-fluorophenyl)-1H-1,2,3-triazol-4-yl]propyl}-7H-pyrrolo[2,3-d]pyrimidin-4-amine] | 25.9 | 109
12 | CC(c1cn(-c2ccccc2F)nn1)n1cc(-c2ccc(OC3CC3)cc2)c2c(N)ncnc21 (centres unmarked) [Example 212, 5-[4-(Cyclopropyloxy)phenyl]-7-{1-[1-(2-fluorophenyl)-1H-1,2,3-triazol-4-yl]ethyl}-7H-pyrrolo[2,3-d]pyrimidin-4-amine] | 12.2 | 68.2
13 | CC(c1cn(-c2ccccc2F)nn1)n1cc(-c2ccc(OC3CC3)nc2)c2c(N)ncnc21 (centres unmarked) [Example 213, 5-[6-(Cyclopropyloxy)pyridin-3-yl]-7-{1-[1-(2-fluorophenyl)-1H-1,2,3-triazol-4-yl]ethyl}-7H-pyrrolo[2,3-d]pyrimidin-4-amine] | 23.1 | 58.6
14 | CC(c1cn(-c2ncccc2F)nn1)n1cc(-c2ccc(OC3CC3)cc2)c2c(N)ncnc21 (centres unmarked) [Example 214, 5-[4-(Cyclopropoxy)phenyl]-7-{1-[1-(3-fluoropyridin-2-yl)-1H-1,2,3-triazol-4-yl]ethyl}-7H-pyrrolo[2,3-d]pyrimidin-4-amine] | 39.6 | 90.6
15 | COc1ncccc1-c1cn(C(C)c2cn(-c3ccccc3F)nn2)c2ncnc(N)c12 (centres unmarked) [Example 215, 7-{1-[1-(2-Fluorophenyl)-1H-1,2,3-triazol-4-yl]ethyl}-5-(2-methoxypyridin-3-yl)-7H-pyrrolo [2,3-d]pyrimidin-4-amine] | 184 | 79.3
16 | CC(c1cn(-c2ccccc2F)nn1)n1cc(-c2cnc(C(F)(F)F)nc2)c2c(N)ncnc21 (centres unmarked) [Example 216, 7-{1-[1-(2-Fluorophenyl)-1H-1,2,3-triazol-4-yl]ethyl}-5-[2-(trifluoromethyl)pyrimidin-5-yl]-7H-pyrrolo[2,3-d]pyrimidin-4-amine] | 58.8 | 25.2
17 | CCC(c1cn(-c2ccccc2F)nn1)n1cc(-c2cc(F)cnc2OC)c2c(N)ncnc21 (centres unmarked) [Example 223, 7-{1-[1-(2-Fluorophenyl)-1H-1,2,3-triazol-4-yl]propyl}-5-(5-fluoro-2-methoxypyridin-3-yl)-7H-pyrrolo[2,3-d]pyrimidin-4-amine] | 7.23 | 11.1
18 | CCC(c1cn(-c2ccccc2F)nn1)n1cc(-c2cnc(C(F)(F)F)nc2)c2c(N)ncnc21 (centres unmarked) [Example 224, 7-{1-[1-(2-Fluorophenyl)-1H-1,2,3-triazol-4-yl]propyl}-5-[2-(trifluoromethyl)pyrimidin-5-yl]-7H-pyrrolo[2,3-d] pyrimidin-4-amine] | 19 | 9.04
19 | CCC(c1cn(-c2ccccc2F)nn1)n1cc(-c2cnco2)c2c(N)ncnc21 (centres unmarked) [Example 225, 7-{1-[1-(2-Fluorophenyl)-1H-1,2,3-triazol-4-yl]propyl}-5-(1,3-oxazol-5-yl)-7H-pyrrolo[2,3-d]pyrimidin-4-amine] | 93.2 | 37.3
20 | CCC(c1cn(-c2ccccc2F)nn1)n1cc(C2CC2)c2c(N)ncnc21 (centres unmarked) [Example 236, 5-cyclopropyl-7-{1-[1-(2-fluorophenyl)-1H-1,2,3-triazol-4-yl]propyl}-7H-pyrrolo[2,3-d]pyrimidin-4-amine] | 38.8 | 56
21 | CC(c1cn(-c2ccccc2F)nn1)n1cc(C2CC2)c2c(N)ncnc21 (centres unmarked) [Example 238, 5-Cyclopropyl-7-{1-[1-(2-fluorophenyl)-1H-1,2,3-triazol-4-yl]ethyl}-7H-pyrrolo[2,3-d]pyrimidin-4-amine] | 133 | 60.6
22 | CC(c1cn(-c2ccccc2F)nn1)n1cc(-c2ccc(C#N)c(F)c2)c2c(N)ncnc21 (centres unmarked) [Example 239, 4-(4-Amino-7-{1-[1-(2-fluorophenyl)-1H-1,2,3-triazol-4-yl)ethyl]-7H-pyrrolo[2,3-d]pyrimidin-5-yl}-2-fluorobenzonitrile] | 83 | 94.4
23 | CCC(c1cn(-c2cc(C(F)(F)F)ccn2)nn1)n1cc(-c2cncnc2OC)c2c(N)ncnc21 (centres unmarked) [Example 242, 5-(4-Methoxypyrimidin-5-yl)-7-(1-{1-[4-(trifluoromethyl)pyridin-2-yl]-1H-1,2,3-triazol-4-yl]propyl}-7H-pyrrolo[2,3-d]pyrimidin-4-amine] | 205 | 378
24 | COc1ncncc1-c1cn(C(c2cn(-c3ccccc3F)nn2)C2CC2)c2ncnc(N)c12 (centres unmarked) [Example 243, 7-{Cyclopropyl[1-(2-fluorophenyl)-1H-1,2,3-triazol-4-yl]methyl}-5-(4-methoxypyrimidin-5-yl)-7H-pyrrolo[2,3-d]pyrimidin-4-amine] | 95.3 | 56.2
25 | CCC(c1cn(-c2ccccc2F)nn1)n1cc(-c2cncnc2OC)c2c(N)ncnc21 (centres unmarked) [Example 244, 7-{1-[1-(2-Fluorophenyl)-1H-1,2,3-triazol-4-yl]propyl}-5-[4-methoxypyrimidin-5-yl]-7H-pyrrolo[2,3-d]pyrimidin-4-amine] | 61.6 | 34.1
26 | CC(c1cn(-c2ccccc2F)nn1)n1cc(C2CCC2)c2c(N)ncnc21 (centres unmarked) [Example 247, 5-Cyclobutyl-7-{1-[1-(2-fluorophenyl)-1H-1,2,3-triazol-4-yl]ethyl}-7H-pyrrolo[2,3-d]pyrimidin-4-amine] | 12.4 | 16.2
27 | CCC(c1cn(-c2ccccc2)nn1)n1cc(-c2cncnc2OC)c2c(N)ncnc21 (centres unmarked) [Example 248, 5-(4-Methoxypyrimidin-5-yl)-7-{1-[1-phenyl-1H-1,2,3-triazol-4-yl]propyl}-7H-pyrrolo[2,3-d]pyrimidin-4-amine] | 55.4 | 25.9
28 | COc1nc(C(F)(F)F)ncc1-c1cn(C(C)c2cn(-c3ccccc3F)nn2)c2ncnc(N)c12 (centres unmarked) [Example 249, 7-{1-[1-(2-Fluorophenyl)-1H-1,2,3-triazol-4-yl]ethyl}-5-[4-methoxy-2-(trifluoromethyl)pyrimidin-5-yl]-7H-pyrrolo[2,3-d]pyrimidin-4-amine] | 27.7 | 12.2
